Test results reported in ChEMBL document CHEMBL1201862, “PubChem BioAssay data set” (2004).
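Step 1: Grow cells in 96-well plates. Step 2: Expose to compound for 48 hours at 5 concentrations. Step 3: Interpolate endpoints linearly; if unreached, use highest concentration. The concentration for 50% growth inhibition is given as GI50.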 The source made the active and inactive calls. No stated cut-off is given here; in the data, active = GI50 up to about 1.1 µM and inactive = higher.

Legend:
Assay in all cases: growth of human tumour cells (NCI), 48 h
A549 = tested on: A549
HT-29 = tested on: HT-29
SK-MEL-2 = tested on: SK-MEL-2
T47D = tested on: T47D
UACC-62 = tested on: UACC-62
KM12 = tested on: KM12
NCI-H226 = tested on: NCI-H226
U-251 = tested on: U-251
MDA-MB-435 = tested on: MDA-MB-435
IGROV-1 = tested on: IGROV-1
COLO 205 = tested on: COLO 205
786-0 = tested on: 786-0
SF-539 = tested on: SF-539
MDA-MB-231 = tested on: MDA-MB-231
SF-295 = tested on: SF-295
SR = tested on: SR
SK-MEL-28 = tested on: SK-MEL-28
DU-145 = tested on: DU-145
HOP-62 = tested on: HOP-62
HL-60 = tested on: HL-60
K562 = tested on: K562
BT-549 = tested on: BT-549
MDA-N = tested on: MDA-N
SNB-75 = tested on: SNB-75
Malme-3M = tested on: Malme-3M
TK-10 = tested on: TK-10
NCI/ADR-RES = tested on: NCI/ADR-RES
SNB-19 = tested on: SNB-19
HCT-15 = tested on: HCT-15
UO-31 = tested on: UO-31
MCF7 = tested on: MCF7
RXF 393 = tested on: RXF 393
OVCAR-4 = tested on: OVCAR-4
SN12C = tested on: SN12C
RPMI-8226 = tested on: RPMI-8226
CAKI-1 = tested on: CAKI-1
PC-3 = tested on: PC-3
ACHN = tested on: ACHN
CCRF-CEM = tested on: CCRF-CEM
Hs-578T = tested on: Hs-578T
NCI-H460 = tested on: NCI-H460
SW-620 = tested on: SW-620
MOLT-4 = tested on: MOLT-4
OVCAR-8 = tested on: OVCAR-8
SK-MEL-5 = tested on: SK-MEL-5
HCT-116 = tested on: HCT-116
LOX IMVI = tested on: LOX IMVI
M14 = tested on: M14
UACC-257 = tested on: UACC-257
SF-268 = tested on: SF-268
EKVX = tested on: EKVX
HOP-92 = tested on: HOP-92
SK-OV-3 = tested on: SK-OV-3
NCI-H522 = tested on: NCI-H522
A498 = tested on: A498
NCI-H23 = tested on: NCI-H23
OVCAR-5 = tested on: OVCAR-5
OVCAR-3 = tested on: OVCAR-3
HCC 2998 = tested on: HCC 2998

Which results are given for `CC(C)=CCC1=C(OCC(=O)O)C(=O)c2ccccc2C1=O`?
GI50 (A549): 30.8 µM (inactive); GI50 (HT-29): 47.2 µM (inactive); GI50 (SK-MEL-2): 25.7 µM (inactive); GI50 (T47D): 31.5 µM (inactive); GI50 (UACC-62): 19 µM (inactive); GI50 (KM12): 25.2 µM (inactive); GI50 (NCI-H226): 32.4 µM (inactive); GI50 (U-251): 30.3 µM (inactive); GI50 (MDA-MB-435): 15.5 µM (inactive); GI50 (IGROV-1): 39.1 µM (inactive); GI50 (COLO 205): 60.3 µM (inactive); GI50 (786-0): 41.1 µM (inactive); GI50 (SF-539): 27.2 µM (inactive); GI50 (MDA-MB-231): 49.8 µM (inactive); GI50 (SF-295): 11.9 µM (inactive); GI50 (SR): 34.3 µM (inactive); GI50 (SK-MEL-28): 35 µM (inactive); GI50 (DU-145): 33.5 µM (inactive); GI50 (HOP-62): 40.9 µM (inactive); GI50 (HL-60): 14.5 µM (inactive); GI50 (K562): 33 µM (inactive); GI50 (BT-549): 29.9 µM (inactive); GI50 (MDA-N): 17.9 µM (inactive); GI50 (SNB-75): 24.4 µM (inactive); GI50 (Malme-3M): 19.3 µM (inactive); GI50 (TK-10): > 100 µM (inactive); GI50 (NCI/ADR-RES): 32.1 µM (inactive); GI50 (SNB-19): 27.9 µM (inactive); GI50 (HCT-15): 39.4 µM; GI50 (UO-31): 28 µM (inactive); GI50 (MCF7): 25.1 µM (inactive); GI50 (RXF 393): 31.9 µM (inactive); GI50 (OVCAR-4): 31.9 µM (inactive); GI50 (SN12C): 24.5 µM (inactive); GI50 (RPMI-8226): 24.1 µM (inactive); GI50 (CAKI-1): 52.5 µM (inactive); GI50 (PC-3): 31.3 µM (inactive); GI50 (ACHN): 39.4 µM (inactive); GI50 (CCRF-CEM): 23.9 µM (inactive); GI50 (Hs-578T): 22.2 µM (inactive); GI50 (NCI-H460): 34.5 µM (inactive); GI50 (SW-620): 23 µM (inactive); GI50 (MOLT-4): 15.9 µM (inactive); GI50 (OVCAR-8): 38.5 µM (inactive); GI50 (SK-MEL-5): 19.5 µM (inactive); GI50 (HCT-116): 22.6 µM (inactive); GI50 (LOX IMVI): 32.6 µM (inactive); GI50 (M14): 33 µM (inactive); GI50 (UACC-257): 29.1 µM (inactive); GI50 (SF-268): 22.3 µM (inactive); GI50 (EKVX): 37.1 µM (inactive); GI50 (HOP-92): 47.4 µM (inactive); GI50 (SK-OV-3): 67.9 µM (inactive); GI50 (NCI-H522): 23.6 µM (inactive); GI50 (A498): 76.7 µM (inactive); GI50 (NCI-H23): 33 µM (inactive)

With `O/N=C1/Nc2cc(Cl)ccc2C(=S)N2CSCC12` (stereo unspecified) as the compound, how does the GI50 (A549) read?
Its GI50 is > 100 µM (inactive).

What about the GI50 (HT-29) of the same compound?
Its GI50 is > 100 µM (inactive).

And the GI50 (SK-MEL-2)?
The GI50 was > 100 µM (inactive).

And the GI50 (T47D)?
Its GI50 is > 100 µM (inactive).

What about the GI50 (UACC-62) of the same compound?
The GI50 was > 100 µM (inactive).

And the GI50 (KM12)?
The GI50 was > 100 µM (inactive).

And the GI50 (NCI-H226)?
The GI50 was > 100 µM (inactive).

And the GI50 (U-251)?
The GI50 was > 100 µM (inactive).

And the GI50 (MDA-MB-435)?
The GI50 was > 100 µM (inactive).

What about the GI50 (IGROV-1) of the same compound?
Its GI50 is > 100 µM (inactive).

What about the GI50 (OVCAR-5) of the same compound?
The GI50 was > 100 µM (inactive).

And the GI50 (COLO 205)?
The GI50 was > 100 µM (inactive).

What about the GI50 (786-0) of the same compound?
The GI50 was > 100 µM (inactive).

And the GI50 (MDA-MB-231)?
Its GI50 is > 100 µM (inactive).

And the GI50 (SF-295)?
The GI50 was > 100 µM (inactive).

What about the GI50 (SR) of the same compound?
Its GI50 is > 100 µM (inactive).

And the GI50 (SK-MEL-28)?
Its GI50 is > 100 µM (inactive).

What about the GI50 (DU-145) of the same compound?
The GI50 was > 100 µM (inactive).

And the GI50 (HOP-62)?
The GI50 was > 100 µM (inactive).

And the GI50 (K562)?
Its GI50 is 87.3 µM (inactive).

And the GI50 (BT-549)?
Its GI50 is > 100 µM (inactive).

What about the GI50 (MDA-N) of the same compound?
Its GI50 is > 100 µM (inactive).

And the GI50 (SNB-75)?
The GI50 was > 100 µM (inactive).

What about the GI50 (Malme-3M) of the same compound?
Its GI50 is > 100 µM (inactive).

What about the GI50 (TK-10) of the same compound?
Its GI50 is > 100 µM (inactive).

And the GI50 (NCI/ADR-RES)?
Its GI50 is > 100 µM (inactive).

And the GI50 (SNB-19)?
The GI50 was > 100 µM (inactive).

What about the GI50 (HCT-15) of the same compound?
The GI50 was > 100 µM.

And the GI50 (UO-31)?
Its GI50 is > 100 µM (inactive).

And the GI50 (MCF7)?
Its GI50 is > 100 µM (inactive).

What about the GI50 (RXF 393) of the same compound?
Its GI50 is > 100 µM (inactive).

What about the GI50 (OVCAR-4) of the same compound?
The GI50 was > 100 µM (inactive).

What about the GI50 (SN12C) of the same compound?
The GI50 was > 100 µM (inactive).

And the GI50 (RPMI-8226)?
The GI50 was > 100 µM (inactive).

And the GI50 (CAKI-1)?
Its GI50 is > 100 µM (inactive).

What about the GI50 (PC-3) of the same compound?
Its GI50 is > 100 µM (inactive).

And the GI50 (ACHN)?
The GI50 was > 100 µM (inactive).

And the GI50 (CCRF-CEM)?
The GI50 was > 100 µM (inactive).

And the GI50 (Hs-578T)?
The GI50 was > 100 µM (inactive).

And the GI50 (NCI-H460)?
Its GI50 is > 100 µM (inactive).

What about the GI50 (SW-620) of the same compound?
Its GI50 is > 100 µM (inactive).

What about the GI50 (MOLT-4) of the same compound?
The GI50 was > 100 µM (inactive).

And the GI50 (OVCAR-8)?
The GI50 was > 100 µM (inactive).

And the GI50 (SK-MEL-5)?
The GI50 was > 100 µM (inactive).

And the GI50 (OVCAR-3)?
The GI50 was > 100 µM (inactive).

And the GI50 (HCT-116)?
Its GI50 is > 100 µM (inactive).

And the GI50 (LOX IMVI)?
The GI50 was > 100 µM (inactive).

What about the GI50 (HCC 2998) of the same compound?
The GI50 was > 100 µM (inactive).

What about the GI50 (M14) of the same compound?
The GI50 was > 100 µM (inactive).

And the GI50 (UACC-257)?
Its GI50 is > 100 µM (inactive).

And the GI50 (SF-268)?
Its GI50 is > 100 µM (inactive).

And the GI50 (EKVX)?
Its GI50 is > 100 µM (inactive).

What about the GI50 (SK-OV-3) of the same compound?
Its GI50 is > 100 µM (inactive).

And the GI50 (NCI-H522)?
The GI50 was > 100 µM (inactive).

And the GI50 (A498)?
The GI50 was > 100 µM (inactive).
